Reference: patent publication US20230084978A1, “OPTIMIZATION OF PEPTIDE-MELANIN BINDING” (ASSITANCE PUBLIQUE - HÔPITAUX DE PARIS, priority 2020, published 2023)

Tests used:
[1] = system: humanized female HLADRB1* 0101/HLA-A*0201 (HHD DR1) mice; test: CTL response (IFNg-SFCs of re-stimulated splenocytes) after subcutaneous immunization in humanized mice; assay type: in vivo; details: 10 μg/mouse subcutaneous, day 8, more than 10 spots is positive
Method: CTL response was evaluated after subcutaneous immunizations in humanized female HLADRB1* 0101/HLA-A*0201 (HHD DR1) mice.
L-Dopa (0.8 mg/ml) underwent an oxidative polymerization at pH 8.5 in aerobic conditions for 2 hours at 60° C. The reaction mixture was then filtered on a 10 kDa filter, and the retentate containing the synthetic melanin was resuspended at pH 7.5 in phosphate buffer.
Peptides (A10, SEQ ID NO: 29; A8, SEQ ID NO: 34; A30, SEQ ID NO: 31, 10 μg/mouse) were then added (at the weight ratio peptide/L-Dopa=1/4).
Mixtures (either Mel+peptides or Peptides alone) were rapidly (<1 hour) used for subcutaneous immunizations in mice. Phosphorothioate oligonucleotide CpG-28 (5′-[…], SEQ ID NO: 21) was added to vaccine formulations (10 μg/mouse) just before the immunizations. Mice were sacrificed on day 8 and the CTL response was performed as described in Carpentier; 2017. Briefly, splenocytes were re-stimulated in vitro with the corresponding peptide (non-conjugated to melanin) and the numbers of IFNg-SFCs (Spot forming cells) were measured and expressed as Mean+/−S.E.M. (n=4 to 8 mice/group). More than 10 spots is considered as a positive immune response

[2] = Binding of peptides to synthetic melanin (Tricine-SDS-PAGE analysis); details: for Percentage of peptide binding to melanin, Mel + peptide: L-Dopa polymerized 2 h at pH 8.5 and 60° C. before the peptide was added; for binding of the peptides to melanin (in words), SDS-page analysis: antigen added just after L-Dopa is polymerized in melanin; for Percentage of peptide binding to melanin, Peptide-Mel: peptide mixed with L-Dopa (1/4 gp100, 1/6 EphA2); for peptide binding to melanin: binding-promoting amino-acid at NH2-terminal vs COOH terminal end
Text: The binding of the peptide to the melanin can be verified by Tricine-SDS-PAGE analysis as described in Carpentier; 2017 (op. cit.). Briefly, samples (peptide-Mel or peptide alone) are loaded on acrylamide gels. Following electrophoresis, the gels are stained with Coomassie Brilliant Blue R-250, allowing the quantification of the free peptide in the gel. The binding of peptides to melanin can be expressed as the ratio: [amount of unbound peptide in samples Peptide-Mel/amount of peptides in control samples containing peptides alone.
Peptides were mixed with L-Dopa (weight ratio peptide/L-Dopa=1/4 and 1/6 for gp100 and EphA2, respectively) then incubated for 2 hours at pH 8.5 and 60° C. under agitation to ensure oxygenation of the solution to generate nanoparticles of melanin-bound peptides (Peptide-Mel). Alternatively, L-Dopa alone (0.8 mg/ml) was polymerized into melanin for 2 h at pH 8.5 and 60° C. under agitation, before the peptides (weight ratio peptide/L-Dopa=1/4 and 1/6 for gp100 and EphA2, respectively) were added to the solution (Mel+peptide). Tricine-SDS-PAGE analysis was performed as described in Carpentier; 2017 (op. cit.). Briefly, samples (peptide-Mel or peptide alone) were loaded on acrylamide gels. Following electrophoresis, the gels were stained with Coomassie Brilliant Blue R-250 and imaged with the ChemiDoc XRS+ system (Bio-Rad Laboratory), allowing the quantification of the free peptide in the gel. The binding of peptides to melanin was expressed as the ratio: [amount of unbound peptide in samples Peptide-Mel/amount of peptides in control samples containing peptides alone]
First column (Peptide-Mel): L-Dopa (0.8 mg/ml) was mixed with peptides (weight ratio peptide/L-Dopa=1/4) then incubated for 2 hours at pH 8.5 and 60° C. to generate nanoparticles of melanin-bound peptides. Alternatively (second column; Mel+peptide), L-Dopa alone (0.8 mg/ml) was first polymerized into melanin for 2 h at pH 8.5 and 60° C. under vigorous agitation, before the peptides (weight ratio peptide/L-Dopa=1/4) were added to the solution and incubated for 2 hours at room temperature. In both cases, the percentage of peptides that bound to melanin was then quantified with SPS-page analysis, as described in table 1. (ND=not done)
(§1) L-Dopa (0.8 mg/ml) underwent an oxidative polymerization at pH 8.5 in aerobic conditions for 2 hours at 60° C. The reaction mixture was then filtered on a 10 kDa filter, and the retentate containing the synthetic melanin was resuspended at pH 7.5 in phosphate buffer. Peptides were then added (at the weight ratio peptide/L-Dopa=1/4) and the mixture was incubated for various periods of time and or pH. The percentage of peptides that bound to melanin was then quantified with SPS-page analysis, as described in table 1. (ND=not done).
as §1, with “8.5 and 60° C.” for “8.5 in aerobic conditions”, “2 hours.” for “2 hours at 60° C.”, “of time. Binding” for “of time and or pH. The percentage”, “of the” for “of”, “peptides” for “peptides that bound to melanin”, “(ND=not done)” for “(ND=not done).”

[3] = system: C57BL/6 mice; test: CTL response (IFNg-SFCs of re-stimulated splenocytes) after subcutaneous immunization; assay type: in vivo; details: antigen added just after polymerization (Mel+peptide) + CpG-28, subcutaneous, 10 μg/mouse, day 8
Method: FIG. 1: CTL response after subcutaneous immunizations in 5-weeks old, C57BL/6, mice. Peptides (10 μg/mouse) were mixed with L-Dopa (weight ratio peptide/L-Dopa=1/4 and 1/6 for gp100 and EphA2 respectively) and incubated under the above described conditions (see table 1). Phosphorothioate oligonucleotide CpG-28 (5′-[…], SEQ ID NO: 21), were added to vaccine formulations (10 μg/mouse) just before the immunizations. Mice were then immunized sub-cutaneously with gp100-Mel+CpG (“gp100-Mel”), or with previously synthesized melanin mixed with gp100 and CpG (“Mel+gp100”); EphA2-Mel+CpG (“EphA2-Mel”), melanin+EphA2+CpG (“Mel+EphA2”). Mice were sacrificed on day 8 and the CTL response was performed as described in Carpentier; 2017. Briefly, splenocytes were re-stimulated in vitro with the corresponding MHC class 1-epitope (non-conjugated to melanin) and the numbers of IFNg-SFCs (Spot forming cells) were measured and expressed as Mean+/−S.E.M. (n=8 mice/group with pooled data from 2 different experiments of 4 mice each. Student-T test: gp100-Mel vs Mel+gp100: p<0.001; EphA2-Mel vs Mel+EphA2: p<0.001)
FIG. 2: CTL response after subcutaneous immunizations in C57BL/6 mice. […]

[4] = then 2 hours at pH 8.5 and 60° C.

## CKSVWSKLQSIGIRQH (Modified UCP2 Peptide) [A10]
[1]; Mel + pept + CpG-28
  numbers of IFNg-SFCs (Spot forming cells), Mean: 150
[1]; Pept + CpG-28
  numbers of IFNg-SFCs (Spot forming cells), Mean: 18

## CKVFAGIPTV (Modified PTPRZ1 Epitope) [A30]
[1]; Mel + pept + CpG-28
  numbers of IFNg-SFCs (Spot forming cells), Mean: 182

## CKVFAGIPTVASDTV (Modified PTPRZ1 Epitope) [A8]
[1]; Mel + pept + CpG-28
  numbers of IFNg-SFCs (Spot forming cells), Mean: 29
[1]; Pept + CpG-28
  numbers of IFNg-SFCs (Spot forming cells), Mean: 5

## FSHHNIIRL (EphA2 peptide) [SEQ ID NO: 2, reference compound]
[2]
  Percentage of peptide binding to melanin, Mel + peptide: 9 +/− 6%
  binding of the peptides to melanin (in words), SDS-page analysis: minimal binding
[2]; [4]
  Percentage of peptide binding to melanin, Peptide-Mel: 93 +/− 12%
[3]
  ability of the vaccine formulation to trigger a CTL (CD8) response: lost

## KVPRNQDWL (gp100 peptide) [SEQ ID NO: 1, reference compound]
[2]
  Percentage of peptide binding to melanin, Mel + peptide: 23 +/− 8%
  binding of the peptides to melanin (in words), SDS-page analysis: minimal binding
[2]; filtered preformed melanin at pH 7.5, peptide/L-Dopa 1/4, 10 minutes
  Binding of peptides on synthetic melanin, Mel + peptide 10 minutes: 6%
[2]; filtered preformed melanin at pH 7.5, peptide/L-Dopa 1/4, 2 hours
  Binding of peptides on synthetic melanin, Mel + peptide 2 hours: 22%
[2]; filtered preformed melanin at pH 7.5, peptide/L-Dopa 1/4, 18 hours
  Binding of peptides on synthetic melanin, Mel + peptide 18 hours: 89%
[2]; [4]
  Percentage of peptide binding to melanin, Peptide-Mel: 100 +/− 0%
[3]
  ability of the vaccine formulation to trigger a CTL (CD8) response: lost

## SIYRYYGL [SEQ ID NO: 3, reference compound]
[2]; L-Dopa polymerized first, peptide added (1/4), 2 hours at room temperature
  Binding of peptides on synthetic melanin, Mel + peptide: 0%
[2]; filtered (10 kDa) preformed melanin, peptide/L-Dopa 1/4, 2 hours, pH 7.4
  Binding of peptides on synthetic melanin, Mel + peptide 2 hours at pH 7.4: 0%
[2]; filtered preformed melanin, peptide/L-Dopa 1/4, 18 hours, pH 7.4
  Binding of peptides on synthetic melanin, Mel + peptide 18 hours at pH 7.4: 28%
[2]; filtered preformed melanin, peptide/L-Dopa 1/4, 18 hours, pH 8.5
  Binding of peptides on synthetic melanin, Mel + peptide 18 hours at pH 8.5: 31%
[2]; peptide/L-Dopa 1/4 mixed, then 2 hours at pH 8.5 and 60° C.
  Binding of peptides on synthetic melanin, Peptide-Mel: 90%

## VYDFFVWL-X [SEQ ID NO: 20]
[2]
  peptide binding to melanin: 55%

## X-VYDFFVWL [SEQ ID NO: 19]
[2]
  peptide binding to melanin: 51%
